We go through 25 compounds from PubChem BioAssay AID330 (DTP/NCI, 2004).

“And” between values parts separate entries of the source, which are not always exact repeats. Equal entries are not always repeated. Inconclusive results and toxic doses are left out.

The subject of the experiment is P388 leukemia ip, CD2F1 mice, survival T/C. In words: NCI In Vivo Anticancer Drug Screen. Data for tumor model P388 Leukemia (intraperitoneal) in CD2F1 (CDF1) mice. Conditions: endpoint: median survival time, higher = longer survival. The procedure, abridged:
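Mice carrying the transplanted tumor received test compound or vehicle. Survival was recorded in each group, and the value is the treated-group measurement divided by that of the vehicle-treated control group.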

Where [1] appears, read: dose: 100.0 mg/kg/injection, schedule: Q01DX001 (ip), vehicle: saline with Tween-80.
Setting [2] is: dose: 200.0 mg/kg/injection, schedule: Q01DX001 (ip), vehicle: saline with Tween-80.
[3] abbreviates: dose: 400.0 mg/kg/injection, schedule: Q01DX001 (ip), vehicle: saline with Tween-80.
The mark [4] stands for this setting: dose: 100.0 mg/kg/injection, schedule: Q04DX002 (ip), vehicle: saline with Tween-80.
[5] abbreviates: dose: 50.0 mg/kg/injection, schedule: Q01DX009 (ip), vehicle: saline with Tween-80.
Where [6] appears, read: dose: 100.0 mg/kg/injection, schedule: Q01DX009 (ip), vehicle: saline with Tween-80.
Where [7] appears, read: dose: 200.0 mg/kg/injection, schedule: Q01DX009 (ip), vehicle: saline with Tween-80.
Where [8] appears, read: dose: 50.0 mg/kg/injection, schedule: Q01DX005 (ip), vehicle: Klucel (hydroxypropylcellulose) (HPC).
The mark [9] stands for this setting: dose: 100.0 mg/kg/injection, schedule: Q01DX005 (ip), vehicle: Klucel (hydroxypropylcellulose) (HPC).
The mark [10] stands for this setting: dose: 100.0 mg/kg/injection, schedule: Q01DX009 (ip), vehicle: Klucel (hydroxypropylcellulose) (HPC).
Where [11] appears, read: dose: 200.0 mg/kg/injection, schedule: Q01DX009 (ip), vehicle: Klucel (hydroxypropylcellulose) (HPC).
The mark [12] stands for this setting: dose: 200.0 mg/kg/injection, schedule: Q01DX005 (ip), vehicle: Klucel (hydroxypropylcellulose) (HPC).

`CCCCN=C(N)N/N=C(\C)c1cccc2c1Cc1c(/C(C)=N/NC(N)=NCCCC)cccc1-2`: the T/C (dose: 12.5 mg/kg/injection, schedule: Q04DX002 (ip), vehicle: saline with Tween-80) is 108 % of control.
On to `O=C1Nc2c(ccc3c2NCCC3)C2CCCC12` (stereo not drawn), for which the T/C is 94 % of control under setting [1], 94 % of control under setting [2] and 90 % of control under setting [3].
Take `Cc1cc(=O)c(C#N)c(C)s1`: the T/C is, setting by setting: under setting [4], 107 % of control; (dose: 200.0 mg/kg/injection, schedule: Q04DX002 (ip), vehicle: saline with Tween-80) 100 % of control; (dose: 400.0 mg/kg/injection, schedule: Q04DX002 (ip), vehicle: saline with Tween-80) 110 % of control.
With `COCCCNC1=C(Cl)C(=O)c2ccccc2C1=O`, the T/C is 99 % of control under setting [5], 117 % of control under setting [6] and 104 % of control under setting [7].
With `O=[N+]([O-])/C=C\c1ccc(/C=C/[N+](=O)[O-])cc1`, the T/C was 103 % of control and 107 % of control (dose: 1.25 mg/kg/injection, schedule: Q01DX009 (ip), vehicle: saline); 103 % of control (dose: 1.25 mg/kg/injection, schedule: Q01DX009 (ip), vehicle: suspension in saline); 100 % of control and 108 % of control (dose: 2.5 mg/kg/injection, schedule: Q01DX009 (ip), vehicle: saline); 116 % of control (dose: 2.5 mg/kg/injection, schedule: Q01DX009 (ip), vehicle: suspension in saline); 104 % of control and 107 % of control (dose: 5.0 mg/kg/injection, schedule: Q01DX009 (ip), vehicle: saline); 114 % of control (dose: 5.0 mg/kg/injection, schedule: Q01DX009 (ip), vehicle: suspension in saline). For the same compound, the T/C reads like this: (dose: 10.0 mg/kg/injection, schedule: Q01DX009 (ip), vehicle: saline) 106 % of control and 116 % of control; (dose: 10.0 mg/kg/injection, schedule: Q01DX009 (ip), vehicle: suspension in saline) 116 % of control.
As to `CCN(CC)c1ccc(NC(c2ccccc2)C(O)c2ccccc2)cc1` (stereo not drawn), the T/C runs as follows: under setting [8], 96 % of control; under setting [9], 104 % of control.
`O=C1NCC(=O)N2CCCC12` (stereo not drawn): the T/C by setting is: (dose: 60.0 mg/kg/injection, schedule: Q01DX005 (ip), vehicle: saline) 99 % of control; (dose: 120.0 mg/kg/injection, schedule: Q01DX005 (ip), vehicle: saline) 100 % of control; (dose: 240.0 mg/kg/injection, schedule: Q01DX005 (ip), vehicle: saline) 107 % of control.
Consider `O=C(Nc1ccc([N+](=O)[O-])cc1)Nc1nncs1`, for which the T/C was 100 % of control (dose: 12.5 mg/kg/injection, schedule: Q01DX009 (ip), vehicle: distilled water + Tween-80); 107 % of control and 92 % of control (dose: 25.0 mg/kg/injection, schedule: Q01DX009 (ip), vehicle: distilled water + Tween-80); 115 % of control and 119 % of control (dose: 50.0 mg/kg/injection, schedule: Q01DX009 (ip), vehicle: distilled water + Tween-80); 119 % of control and 124 % of control (dose: 100.0 mg/kg/injection, schedule: Q01DX009 (ip), vehicle: distilled water + Tween-80); 110 % of control (dose: 200.0 mg/kg/injection, schedule: Q01DX009 (ip), vehicle: distilled water + Tween-80).
For the compound `O=c1oc(-c2ccccc2Br)ns1`, the T/C runs as follows: under setting [10], 107 % of control; under setting [11], 97 % of control.
Regarding `CN(C)C1=C(Cl)C(=O)c2ccccc2C1=O`, the T/C runs as follows: (dose: 25.0 mg/kg/injection, schedule: Q01DX009 (ip), vehicle: Klucel (hydroxypropylcellulose) (HPC)) 100 % of control; (dose: 50.0 mg/kg/injection, schedule: Q01DX009 (ip), vehicle: Klucel (hydroxypropylcellulose) (HPC)) 100 % of control; under setting [10], 97 % of control.
As for `Cc1ccc(C)c2c1C(O)(C#Cc1ccccc1)c1c(C)ccc(C)c1C2(O)C#Cc1ccccc1` (stereo not drawn), the T/C reads like this: (dose: 25.0 mg/kg/injection, schedule: Q01DX005 (ip), vehicle: Klucel (hydroxypropylcellulose) (HPC)) 90 % of control; under setting [8], 93 % of control; under setting [9], 86 % of control.
With `[Cl][Ni][Cl]`, the T/C is 100 % of control (dose: 0.78 mg/kg/injection, schedule: Q01DX009 (ip), vehicle: saline); 103 % of control (dose: 1.56 mg/kg/injection, schedule: Q01DX009 (ip), vehicle: saline); 100 % of control (dose: 3.13 mg/kg/injection, schedule: Q01DX009 (ip), vehicle: saline); 99 % of control (dose: 6.25 mg/kg/injection, schedule: Q01DX009 (ip), vehicle: saline); 99 % of control and 101 % of control (dose: 12.5 mg/kg/injection, schedule: Q01DX009 (ip), vehicle: saline).
For the compound `COc1ccc(/C=N\N=C(/[O-])c2ccc(Cl)cc2)cc1.COc1ccc(/C=N\N=C(/[O-])c2ccc(Cl)cc2)cc1.[Ni+2].[OH3+].[OH3+]`, under setting [4], the T/C is 92 % of control.
In the case of `Cc1ccc(S(=O)(=O)N(Cc2ccc(Cl)cc2)S(=O)(=O)c2ccc(C)cc2)cc1`, the T/C was 110 % of control (dose: 25.0 mg/kg/injection, schedule: Q01DX009 (ip), vehicle: saline); 108 % of control (dose: 50.0 mg/kg/injection, schedule: Q01DX009 (ip), vehicle: saline); 100 % of control (dose: 100.0 mg/kg/injection, schedule: Q01DX009 (ip), vehicle: saline); 100 % of control under setting [11].
For `COC(=O)c1nc2c(n(C)/c1=N/C(=O)Nc1ccccc1)CCCC2`, the T/C was 120 % of control (dose: 25.0 mg/kg/injection, schedule: Q01DX009 (ip), vehicle: saline with Tween-80); 124 % of control under setting [5]; 216 % of control under setting [6]; 117 % of control under setting [7].
Consider `Cc1nc(Nc2ccc(F)cc2)c2c(-c3ccccc3)c[nH]c2n1`, for which the T/C is 90 % of control under setting [8] and 88 % of control under setting [9].
Turning to `CNC(=O)O/N=C(\SC)C(=O)N(C)C`, the T/C reads like this: (dose: 0.87 mg/kg/injection, schedule: Q01DX005 (ip), vehicle: saline) 102 % of control; (dose: 1.75 mg/kg/injection, schedule: Q01DX005 (ip), vehicle: saline) 100 % of control.
Turning to `Cc1cc(C)c(OC(=O)NCCCl)c(C)c1`, the T/C was 97 % of control under setting [8], 97 % of control under setting [9] and 96 % of control under setting [12].
With `COc1ccc(NCc2ccc(C)cc2)cc1`, the T/C runs as follows: under setting [1], 100 % of control; under setting [2], 108 % of control; under setting [3], 107 % of control.
On to `NC(CCl)C(=O)O` (stereo not drawn), for which the T/C was 100 % of control (dose: 50.0 mg/kg/injection, schedule: Q01DX005 (ip), vehicle: saline); 100 % of control (dose: 100.0 mg/kg/injection, schedule: Q01DX005 (ip), vehicle: saline); 100 % of control (dose: 200.0 mg/kg/injection, schedule: Q01DX005 (ip), vehicle: saline).
On to `COc1cc2cccc(OC)c(=O)c2c(OC)c1OC`, for which the T/C under setting [8] was 92 % of control, the T/C under setting [9] is 100 % of control and the T/C under setting [12] was 90 % of control.
In the case of `NCC(N)Cn1ccnc1` (stereo not drawn), the T/C by setting is: (dose: 50.0 mg/kg/injection, schedule: Q04DX003 (ip), vehicle: saline) 93 % of control; (dose: 100.0 mg/kg/injection, schedule: Q04DX003 (ip), vehicle: saline) 94 % of control; (dose: 200.0 mg/kg/injection, schedule: Q04DX003 (ip), vehicle: saline) 95 % of control.
As to `O=C(O)C(OC(=O)C(F)(F)F)C(F)(F)C(F)(F)C(F)(F)F` (stereo not drawn), the T/C by setting is: (dose: 60.0 mg/kg/injection, schedule: Q01DX005 (ip), vehicle: saline with Tween-80) 95 % of control; (dose: 120.0 mg/kg/injection, schedule: Q01DX005 (ip), vehicle: saline with Tween-80) 89 % of control; (dose: 240.0 mg/kg/injection, schedule: Q01DX005 (ip), vehicle: saline with Tween-80) 99 % of control.
On to `CN1C(=O)c2ccccc2Cc2c(NCc3ccccc3)ncnc21`, for which the T/C is 108 % of control under setting [5], 104 % of control under setting [6] and 100 % of control under setting [7].
As for `CNC(=S)NNc1ccc(Cl)nn1`, the T/C is 96 % of control (dose: 100.0 mg/kg/injection, schedule: Q01DX001 (ip), vehicle: saline); 96 % of control (dose: 200.0 mg/kg/injection, schedule: Q01DX001 (ip), vehicle: saline); 102 % of control (dose: 400.0 mg/kg/injection, schedule: Q01DX001 (ip), vehicle: saline).
